This is an account of results in patent publication US9586961B2, “Homopiperazine derivatives as protein tyrosine kinase inhibitors and pharmaceutical use thereof” (LEO PHARMA A/S, priority 2010, dated 2017).

Common to all, as to type: biochemical
The target of one test is T1, JAK3 (Homo sapiens, UniProt P52333).
T1 construct: All four purified enzymes contain only the catalytic domain; His (N); purchased Carna Biosciences, Inc; host or cells: baculovirus expression system
The experiment in a line: JAK3 kinase assay (HTRF, inhibition of phosphorylation of a synthetic peptide). Particulars: catalytic domain, His-tag; 2 μM ATP (Km); read-out: JAK3 kinase inhibitory activity (EC50). The procedure:
(§1) JAK1, JAK2, JAK3 and TYK2 Kinase Assays:
(§2) Human baculovirus-expressed JAK1, 2, 3 and TYK2 were purchased from Carna Biosciences, Inc. All four purified enzymes contain only the catalytic domain. JAK1 (aa 850-1154) and TYK2 (aa 871-1187) are expressed with an N-terminally fused GST-tag, and JAK2 and JAK3 with an N-terminally fused His-tag. Inhibition of phosphorylation of a synthetic peptide was measured in an HTRF-based assay using the TK substrate-Biotin from the CisbioHTRFKinEASE TK kit. First, 2 μl of TK solution (TK substrate-biotin in kinase buffer [1× enzymatic buffer from HTRFKinEASE TK kit, 1 mM DTT]) is added to a plate containing 1 μl prediluted compound (final assay concentration DMSO: 0.75%). Then, 5 μl kinase-ATP mix (prepared in kinase buffer) is added to the wells and the plates are incubated at RT for 20-30 min. For all four kinases a concentration of ATP that corresponded to the Km for ATP was used. The final concentrations of buffers, substrate, kinase and ATP were: JAK1: 50 mMHepes buffer pH 7.0, 0.01% BSA, 10 mM MgCl2, 1 mM DTT, 7 μM ATP, 50 nMSEB, 1 μM TK Substrate-Biotin and 5 ng JAK1; JAK2: 50 mM Hepes buffer pH 7.0, 0.01% BSA, 5 mM MgCl2, 1 mM DTT, 4 μM ATP, 1 μM TK Substrate-Biotin and 0.1 ng JAK2; JAK3: 50 mMHepes buffer pH 7.0, 0.01% BSA, 5 mM MgCl2, 1 mM DTT, 2 μM ATP, 1 μM TK Substrate-Biotin and 0.3 ng JAK3; TYK2: 50 mMHepes buffer pH 7.0, 0.01% BSA, 5 mM MgCl2, 1 mM DTT, 13 μM ATP, 50 nMSEB, 1 μM TK Substrate-Biotin and 0.8 ng TYK2. Thereafter, the kinase reaction is stopped by adding 4 μl detection mix (final concentrations: 50 mM Hepes buffer pH 7.0, 0.01% BSA, 0.8 M KF, 20 mM EDTA, 42 nM Streptavidin-XL665 and 1:400 STKAbCryptate) and the plates are incubated overnight in the dark. The HTRF signal is read using an Envision plate reader.

Another test concerns the target T2, JAK2 (Homo sapiens, UniProt O60674).
T2 construct: All four purified enzymes contain only the catalytic domain; His (N); purchased Carna Biosciences, Inc; host or cells: baculovirus expression system
The experiment in a line: JAK2 kinase assay (HTRF, inhibition of phosphorylation of a synthetic peptide). To be noted: catalytic domain, His-tag; 4 μM ATP (Km); read-out: JAK2 kinase inhibitory activity (EC50). On the procedure:
as §1, §2

The target in a further test is T3, JAK1 (Homo sapiens, UniProt P23458).
T3 construct: JAK1 (aa 850-1154) and TYK2 (aa 871-1187) are expressed with an N-terminally fused GST-tag; GST (N); purchased Carna Biosciences, Inc; host or cells: baculovirus expression system
T3 sequence (P23458 850-1154): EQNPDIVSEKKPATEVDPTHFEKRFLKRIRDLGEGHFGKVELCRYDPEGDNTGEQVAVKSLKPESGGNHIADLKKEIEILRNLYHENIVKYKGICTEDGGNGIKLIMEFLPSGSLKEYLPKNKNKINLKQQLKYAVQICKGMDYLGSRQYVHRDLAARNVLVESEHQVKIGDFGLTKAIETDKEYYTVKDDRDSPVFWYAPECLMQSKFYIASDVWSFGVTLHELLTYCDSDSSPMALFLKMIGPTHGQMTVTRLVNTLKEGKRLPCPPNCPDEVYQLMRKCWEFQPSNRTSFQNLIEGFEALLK
Briefly: JAK1 kinase assay (HTRF, inhibition of phosphorylation of a synthetic peptide). To be noted: catalytic domain aa 850-1154, GST-tag; 7 μM ATP (Km); read-out: JAK1 kinase inhibitory activity (EC50). On the procedure: as §1, §2

T1 sequence (P52333 822-1111 limits assumed): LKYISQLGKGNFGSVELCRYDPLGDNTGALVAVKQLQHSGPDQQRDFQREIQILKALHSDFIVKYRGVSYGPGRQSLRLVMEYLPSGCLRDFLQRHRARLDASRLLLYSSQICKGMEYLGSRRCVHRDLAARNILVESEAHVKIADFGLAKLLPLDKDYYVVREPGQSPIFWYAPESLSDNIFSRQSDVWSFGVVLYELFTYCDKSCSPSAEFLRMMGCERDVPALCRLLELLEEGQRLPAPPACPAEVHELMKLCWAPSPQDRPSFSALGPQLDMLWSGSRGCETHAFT
T2 sequence (O60674 849-1124 limits assumed): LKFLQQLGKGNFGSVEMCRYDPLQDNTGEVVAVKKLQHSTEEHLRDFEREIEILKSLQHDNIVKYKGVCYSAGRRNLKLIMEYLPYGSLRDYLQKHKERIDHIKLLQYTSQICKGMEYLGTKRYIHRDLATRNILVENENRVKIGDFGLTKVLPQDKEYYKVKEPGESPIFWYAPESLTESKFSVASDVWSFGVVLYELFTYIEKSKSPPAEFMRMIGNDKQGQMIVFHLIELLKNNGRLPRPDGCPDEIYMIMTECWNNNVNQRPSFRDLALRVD

The term EC50 denotes the concentration at which the effect is half-maximal. With `Cc1cc(C(=O)N2CCCN(c3ncnc4[nH]ccc34)CC23CC3)n[nH]1` [Example 149, (5-methyl-1H-pyrazol-3-yl)-[5-(7H-pyrrolo[2,3-d]pyrimidin-4-yl)-5,9-diazaspiro[2.6]nonan-9-yl]methanone], the EC50 on JAK3 is more than 1000 nM; at JAK2, 100 to 1000 nM; at JAK1 it was 100 to 1000 nM.
With `Cc1ccncc1C(=O)N1CCN(c2ncnc3[nH]ccc23)CC2(CC2)C1` [Example 150, (4-methyl-3-pyridyl)-[5-(7H-pyrrolo[2,3-d]pyrimidin-4-yl)-5,8-diazaspiro[2.6]nonan-8-yl]methanone], the results for the EC50 at JAK3, on JAK2 and on JAK1 were more than 1000 nM, more than 1000 nM and 100 to 1000 nM, respectively.
For the compound `Cc1ccncc1C(=O)N1CCCN(c2ncnc3[nH]ccc23)CC12CC2` [Example 151, (4-methyl-3-pyridyl)-[5-(7H-pyrrolo[2,3-d]pyrimidin-4-yl)-5,9-diazaspiro[2.6]nonan-9-yl]methanone], the results for the half-maximal effective concentration (EC50) on JAK3, on JAK2 and on JAK1 were more than 1000 nM, 100 to 1000 nM and 100 to 1000 nM, respectively.
As to `O=C(c1ccon1)N1CCN(c2ncnc3[nH]ccc23)CC2(CC2)C1` [Example 152, isoxazol-3-yl-[5-(7H-pyrrolo[2,3-d]pyrimidin-4-yl)-5,8-diazaspiro[2.6]nonan-8-yl]methanone], the EC50 on JAK3, on JAK2 and at JAK1 was 100 to 1000 nM throughout.
Regarding `Cc1nnc(C(=O)N2CCCN(c3ncnc4[nH]ccc34)CC23CC3)o1` [Example 154, (5-methyl-1,3,4-oxadiazol-2-yl)-[5-(7H-pyrrolo[2,3-d]pyrimidin-4-yl)-5,9-diazaspiro[2.6]nonan-9-yl]methanone], the EC50 on JAK3 is 100 to 1000 nM; on JAK2, less than 100 nM; on JAK1, 100 to 1000 nM.
`O=C(c1cnco1)N1CCN(c2ncnc3[nH]ccc23)CC2(CC2)C1` [Example 155, oxazol-5-yl-[5-(7H-pyrrolo[2,3-d]pyrimidin-4-yl)-5,8-diazaspiro[2.6]nonan-8-yl]methanone]: the EC50 on JAK3, at JAK2 and on JAK1 was 100 to 1000 nM throughout.
For the compound `O=C(c1cnco1)N1CCCN(c2ncnc3[nH]ccc23)CC12CC2` [Example 156, oxazol-5-yl-[5-(7H-pyrrolo[2,3-d]pyrimidin-4-yl)-5,9-diazaspiro[2.6]nonan-9-yl]methanone], the EC50 on JAK3, at JAK2 and on JAK1 was 100 to 1000 nM throughout.
On to `O=C(c1cn[nH]c1)N1CCN(c2ncnc3[nH]ccc23)CC2(CC2)C1` [Example 157, 1H-pyrazol-4-yl-[5-(7H-pyrrolo[2,3-d]pyrimidin-4-yl)-5,8-diazaspiro[2.6]nonan-8-yl]methanone], for which the EC50 on JAK3, on JAK2 and at JAK1 was 100 to 1000 nM throughout.
For `O=C(Cc1ccc(F)cc1)N1CCCN(c2ncnc3[nH]ccc23)CC12CC2` [Example 159, 2-(4-fluorophenyl)-1-[5-(7H-pyrrolo[2,3-d]pyrimidin-4-yl)-5,9-diazaspiro[2.6]nonan-9-yl]ethanone], the EC50 at JAK3 was more than 1000 nM; at JAK2 it was less than 100 nM; at JAK1, 100 to 1000 nM.
For the compound `O=C(c1cncnc1)N1CCN(c2ncnc3[nH]ccc23)CC2(CC2)C1` [Example 160, pyrimidin-5-yl-[5-(7H-pyrrolo[2,3-d]pyrimidin-4-yl)-5,8-diazaspiro[2.6]nonan-8-yl]methanone], the figures for the EC50 on JAK3, on JAK2 and on JAK1 were more than 1000 nM, 100 to 1000 nM and more than 1000 nM, respectively.
Consider `O=C(c1cncnc1)N1CCCN(c2ncnc3[nH]ccc23)CC12CC2` [Example 161, pyrimidin-5-yl-[5-(7H-pyrrolo[2,3-d]pyrimidin-4-yl)-5,9-diazaspiro[2.6]nonan-9-yl]methanone], for which the EC50 at JAK3 was more than 1000 nM; at JAK2, 100 to 1000 nM; on JAK1, 100 to 1000 nM.
With `N#Cc1ccccc1C(=O)N1CCCN(c2ncnc3[nH]ccc23)CC12CC2` [Example 162, 2-[5-(7H-pyrrolo[2,3-d]pyrimidin-4-yl)-5,9-diazaspiro[2.6]nonane-9-carbonyl]benzonitrile], the EC50 on JAK3 is more than 1000 nM; on JAK2, 100 to 1000 nM; at JAK1 it was more than 1000 nM.
In the case of `O=C(c1cccc(O)n1)N1CCN(c2ncnc3[nH]ccc23)CC2(CC2)C1` [Example 163, (6-hydroxy-2-pyridyl)-[5-(7H-pyrrolo[2,3-d]pyrimidin-4-yl)-5,8-diazaspiro[2.6]nonan-8-yl]methanone], the EC50 was more than 1000 nM on JAK3, 100 to 1000 nM at JAK2 and 100 to 1000 nM at JAK1.
As to `O=C(c1cccc(O)n1)N1CCCN(c2ncnc3[nH]ccc23)CC12CC2` [Example 164, (6-hydroxy-2-pyridyl)-[5-(7H-pyrrolo[2,3-d]pyrimidin-4-yl)-5,9-diazaspiro[2.6]nonan-9-yl]methanone], the EC50 on JAK3 was more than 1000 nM; on JAK2, 100 to 1000 nM; on JAK1, 100 to 1000 nM.
As to `O=C(c1ccncn1)N1CCN(c2ncnc3[nH]ccc23)CC2(CC2)C1` [Example 165, pyrimidin-4-yl-[5-(7H-pyrrolo[2,3-d]pyrimidin-4-yl)-5,8-diazaspiro[2.6]nonan-8-yl]methanone], the EC50 on JAK3 was more than 1000 nM; on JAK2 it was 100 to 1000 nM; at JAK1, more than 1000 nM.
`O=C(c1ccncn1)N1CCCN(c2ncnc3[nH]ccc23)CC12CC2` [Example 166, pyrimidin-4-yl-[5-(7H-pyrrolo[2,3-d]pyrimidin-4-yl)-5,9-diazaspiro[2.6]nonan-9-yl]methanone]: the EC50 is 100 to 1000 nM at JAK3, less than 100 nM at JAK2 and less than 100 nM on JAK1.
For the compound `O=C(Cc1ccccn1)N1CCN(c2ncnc3[nH]ccc23)CC2(CC2)C1` [Example 167, 2-(2-pyridyl)-1-[5-(7H-pyrrolo[2,3-d]pyrimidin-4-yl)-5,8-diazaspiro[2.6]nonan-8-yl]ethanone], the EC50 on JAK3 was more than 1000 nM; on JAK2 it was 100 to 1000 nM; at JAK1, 100 to 1000 nM.
As for `Cc1nccnc1C(=O)N1CCN(c2ncnc3[nH]ccc23)CC2(CC2)C1` [Example 168, (3-methylpyrazin-2-yl)-[5-(7H-pyrrolo[2,3-d]pyrimidin-4-yl)-5,8-diazaspiro[2.6]nonan-8-yl]methanone], the EC50 on JAK3, at JAK2 and at JAK1 was more than 1000 nM each time.
`Cc1cncc(C(=O)N2CCN(c3ncnc4[nH]ccc34)CC3(CC3)C2)n1` [Example 169, (6-methylpyrazin-2-yl)-[5-(7H-pyrrolo[2,3-d]pyrimidin-4-yl)-5,8-diazaspiro[2.6]nonan-8-yl]methanone]: the values for the EC50 at JAK3, at JAK2 and on JAK1 were more than 1000 nM, 100 to 1000 nM and more than 1000 nM, respectively.
For the compound `Cc1noc(C)c1C(=O)N1CCN(c2ncnc3[nH]ccc23)CC2(CC2)C1` [Example 170, (3,5-dimethylisoxazol-4-yl)-[5-(7H-pyrrolo[2,3-d]pyrimidin-4-yl)-5,8-diazaspiro[2.6]nonan-8-yl]methanone], the EC50 at JAK3, at JAK2 and at JAK1 was more than 1000 nM each time.
Turning to `Cc1cc(C(=O)N2CCN(c3ncnc4[nH]ccc34)CC3(CC3)C2)ccn1` [Example 171, (2-methyl-4-pyridyl)-[5-(7H-pyrrolo[2,3-d]pyrimidin-4-yl)-5,8-diazaspiro[2.6]nonan-8-yl]methanone], the EC50 on JAK3 is more than 1000 nM; on JAK2, more than 1000 nM; at JAK1 it was 100 to 1000 nM.
For `Cc1cc(C(=O)N2CCCN(c3ncnc4[nH]ccc34)CC23CC3)ccn1` [Example 172, (2-methyl-4-pyridyl)-[5-(7H-pyrrolo[2,3-d]pyrimidin-4-yl)-5,9-diazaspiro[2.6]nonan-9-yl]methanone], the results for the EC50 on JAK3, at JAK2 and at JAK1 were more than 1000 nM, 100 to 1000 nM and 100 to 1000 nM, respectively.
As for `O=C(Cc1ccccc1Cl)N1CCN(c2ncnc3[nH]ccc23)CC2(CC2)C1` [Example 173, 2-(2-chlorophenyl)-1-[5-(7H-pyrrolo[2,3-d]pyrimidin-4-yl)-5,8-diazaspiro[2.6]nonan-8-yl]ethanone], the figures for the EC50 on JAK3, on JAK2 and at JAK1 were 100 to 1000 nM, less than 100 nM and 100 to 1000 nM, respectively.
